Source: patent US9796711B2, “Substituted pyrazolo[3,4-b]pyridin-6-carboxylic acids and method of use” (AbbVie S.àr.l., priority 2015, dated 2017)

How the values were obtained:
ΔF508-CFTR [1] = biological target: T1, ΔF508-CFTR (Homo sapiens, UniProt P13569, DEL508-508); experiment: CFTR cell surface levels using HRP-tagged ΔF508-CFTR expressing CFBE cells, in the presence of a co-corrector; assay type: cell-based; details: HRP-tagged ΔF508-CFTR expressing CFBE cells, in the presence of 3 μM co-corrector; for EC50: read-out: EC50
T1 construct: host or cells: CFBE41o-, doxycycline-inducible
Method in brief: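 Cells were seeded with 0.5 μg/mL doxycycline and held 68 h at 37 °C. Test compounds plus 3 μM co-corrector (final 0.1% DMSO) were then added for 20 h at 33 °C. Washed cells received HRP substrate, and luminescence was normalized between DMSO and 3 μM co-corrector controls.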

ΔF508-CFTR [2] = biological target: T1, ΔF508-CFTR; experiment: CFTR cell surface levels using HRP-tagged ΔF508-CFTR expressing CFBE cells, intrinsic corrector capacity; assay type: cell-based; details: for EC50: read-out: EC50
Method in brief: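 Here the cells express ΔF508-CFTR with horseradish peroxidase inserted in extracellular loop 4, so only rescued channel at the surface gives luminescent signal. Compounds act on their own, 20 h at the reduced temperature of 33 °C; values are percent activity relative to DMSO and a 3 μM corrector.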

[3] = HRP-tagged ΔF508-CFTR CFBE41o- cells, compounds alone (intrinsic corrector capacity), 20 hours at 33° C., positive control 3 μM corrector
[4] = HRP-tagged ΔF508-CFTR CFBE41o- cells, compounds alone (intrinsic corrector capacity), 20 hours at 33° C.
[5] = HRP-tagged ΔF508-CFTR expressing CFBE cells, intrinsic corrector capacity (no co-corrector), 33° C., 20 hours

T1 sequence (P13569 with tags, fused parts or gaps DEL508-508): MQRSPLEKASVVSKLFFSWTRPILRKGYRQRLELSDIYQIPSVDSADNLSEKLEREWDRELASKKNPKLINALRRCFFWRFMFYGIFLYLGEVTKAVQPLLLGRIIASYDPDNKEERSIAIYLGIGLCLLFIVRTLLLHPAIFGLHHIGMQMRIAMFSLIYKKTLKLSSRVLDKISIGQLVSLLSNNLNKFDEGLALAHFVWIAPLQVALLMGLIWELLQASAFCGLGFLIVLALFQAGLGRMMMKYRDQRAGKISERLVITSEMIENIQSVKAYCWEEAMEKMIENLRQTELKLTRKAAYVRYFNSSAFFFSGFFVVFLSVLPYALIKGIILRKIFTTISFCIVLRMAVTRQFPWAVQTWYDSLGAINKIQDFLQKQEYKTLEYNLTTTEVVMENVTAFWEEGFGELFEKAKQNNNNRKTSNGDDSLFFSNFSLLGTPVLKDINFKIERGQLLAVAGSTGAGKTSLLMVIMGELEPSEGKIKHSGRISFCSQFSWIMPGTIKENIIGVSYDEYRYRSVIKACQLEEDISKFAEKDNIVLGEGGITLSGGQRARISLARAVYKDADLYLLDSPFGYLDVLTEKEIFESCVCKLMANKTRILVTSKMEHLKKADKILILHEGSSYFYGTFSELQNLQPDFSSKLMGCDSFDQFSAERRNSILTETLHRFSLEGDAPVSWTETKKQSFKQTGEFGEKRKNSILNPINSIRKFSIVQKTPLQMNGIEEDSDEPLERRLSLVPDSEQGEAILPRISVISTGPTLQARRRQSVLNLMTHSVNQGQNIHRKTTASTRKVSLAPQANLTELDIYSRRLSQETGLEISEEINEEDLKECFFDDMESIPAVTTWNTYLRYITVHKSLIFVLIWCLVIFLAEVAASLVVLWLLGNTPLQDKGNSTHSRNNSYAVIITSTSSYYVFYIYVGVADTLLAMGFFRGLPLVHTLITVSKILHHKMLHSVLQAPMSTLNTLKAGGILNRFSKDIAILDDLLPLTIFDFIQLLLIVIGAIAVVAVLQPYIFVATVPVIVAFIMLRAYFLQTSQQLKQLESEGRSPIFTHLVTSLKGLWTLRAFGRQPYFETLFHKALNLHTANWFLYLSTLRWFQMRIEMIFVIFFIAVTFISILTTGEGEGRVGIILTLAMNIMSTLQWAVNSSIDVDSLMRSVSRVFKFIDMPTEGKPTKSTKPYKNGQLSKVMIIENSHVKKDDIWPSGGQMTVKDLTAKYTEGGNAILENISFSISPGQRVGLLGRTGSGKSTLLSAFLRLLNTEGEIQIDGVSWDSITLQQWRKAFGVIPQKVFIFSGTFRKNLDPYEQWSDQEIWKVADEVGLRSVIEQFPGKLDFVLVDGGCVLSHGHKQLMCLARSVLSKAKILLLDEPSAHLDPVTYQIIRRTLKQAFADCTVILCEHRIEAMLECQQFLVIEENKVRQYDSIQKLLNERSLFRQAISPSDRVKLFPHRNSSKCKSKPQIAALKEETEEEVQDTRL

In the case of `CC(C)c1nn([C@@H]2CCC[C@H](O)C2)c2nc(C(=O)O)cc(-c3ccc(N4CCOCC4)cc3)c12` (racemic) [compound 195, rac-1-[(1R,3S)-3-hydroxycyclohexyl]-4-[4-(morpholin-4-yl)phenyl]-3-(propan-2-yl)-1H-pyrazolo[3,4-b]pyridine-6-carboxylic acid], the “% Activation” value (ΔF508-CFTR [1]) is reported as 174.9%, the EC50 (ΔF508-CFTR [1]) is reported as 3340 nM and the “% Activation” value (ΔF508-CFTR [2]; [3]) is reported as 27.46%. It also gave an EC50 (ΔF508-CFTR [2]; [4]) of over 10000 nM.
With `Cc1nn(-c2cccc(F)c2)c2nc(C(=O)O)cc(-c3ccc(N4CCOCC4)nc3)c12` [compound 101, 1-(3-fluorophenyl)-3-methyl-4[6-(morpholin-4-yl)pyridin-3-yl]-1H-pyrazolo[3,4-b]pyridine-6-carboxylic acid] the “% Activation” value (ΔF508-CFTR [1]) was 331.65%, the EC50 (ΔF508-CFTR [1]) was 999 nM and the “% Activation” value (ΔF508-CFTR [2]; [3]) was 143.75%. It also gave an EC50 (ΔF508-CFTR [2]; [4]) of 1610 nM.
With `CS(=O)(=O)N1CCC(F)(COc2cc(C(=O)O)nc3c2c(C2CCC2)nn3-c2ccccc2)CC1` [compound 626, 3-cyclobutyl-4-{[4-fluoro-1-(methanesulfonyl)piperidin-4-yl]methoxy}-1-phenyl-1H-pyrazolo[3,4-b]pyridine-6-carboxylic acid] the “% Activation” value (ΔF508-CFTR [1]) was 398.15%, the EC50 (ΔF508-CFTR [1]) was 1010 nM and the “% Activation” value (ΔF508-CFTR [2]; [5]) was 223.1%. It also gave an EC50 (ΔF508-CFTR [2]; [5]) of 2710 nM.
`O=C(O)c1cc(OCCC2CC(F)(F)C2)c2c(C3CCC3)nn(-c3ccccc3)c2n1` [compound 477, 3-cyclobutyl-4-[2-(3,3-difluorocyclobutyl)ethoxy]-1-phenyl-1H-pyrazolo[3,4-b]pyridine-6-carboxylic acid] was tested, and the “% Activation” value (ΔF508-CFTR [1]) was 266.3%, the EC50 (ΔF508-CFTR [1]) was 501 nM and the “% Activation” value (ΔF508-CFTR [2]; [5]) was 97.78%. For the same compound, the EC50 (ΔF508-CFTR [2]; [5]) was 1020 nM.
In the case of `Cc1cccc(-n2nc(C(C)C)c3c(N4CCCCC4)cc(C(=O)O)nc32)c1` [compound 162, 1-(3-methylphenyl)-4-(piperidin-1-yl)-3-(propan-2-yl)-1H-pyrazolo[3,4-b]pyridine-6-carboxylic acid], the “% Activation” value (ΔF508-CFTR [1]) is reported as 399.73%, the EC50 (ΔF508-CFTR [1]) is reported as 808 nM and the “% Activation” value (ΔF508-CFTR [2]; [3]) is reported as 147.97%. It also gave an EC50 (ΔF508-CFTR [2]; [4]) of 992 nM.
In the case of `COCCN(CCOC)c1ccc(-c2cc(C(=O)O)nc3c2c(C(C)C)nn3-c2ccnc(N3CCOCC3)c2)cn1` [compound 524, 4-{6-[bis(2-methoxyethyl)amino]pyridin-3-yl}-1-[2-(morpholin-4-yl)pyridin-4-yl]-3-(propan-2-yl)-1H-pyrazolo[3,4-b]pyridine-6-carboxylic acid], the “% Activation” value (ΔF508-CFTR [1]) is reported as 354.25%, the EC50 (ΔF508-CFTR [1]) is reported as 261 nM and the “% Activation” value (ΔF508-CFTR [2]; [5]) is reported as 134.7%. For the same compound, the EC50 (ΔF508-CFTR [2]; [5]) was 454 nM.
With `CC(C)CN1C[C@@H]2CN(c3cc(C(=O)O)nc4c3c(C(C)C)nn4-c3ccc(F)cc3)C[C@@H]2C1` [compound 796, 1-(4-fluorophenyl)-4-[(3aR,6aS)-5-(2-methylpropyl)hexahydropyrrolo[3,4-c]pyrrol-2(1H)-yl]-3-(propan-2-yl)-1H-pyrazolo[3,4-b]pyridine-6-carboxylic acid] the “% Activation” value (ΔF508-CFTR [1]) was 358%, the EC50 (ΔF508-CFTR [1]) was 1670 nM and the “% Activation” value (ΔF508-CFTR [2]; [5]) was 169.7%. For the same compound, the EC50 (ΔF508-CFTR [2]; [5]) was 1670 nM.
With `CC(C)c1nn(-c2ccc(F)c(F)c2)c2nc(C(=O)O)cc(-c3ccc(N4CCC(C#N)CC4)nc3)c12` [compound 279, 4-[6-(4-cyanopiperidin-1-yl)pyridin-3-yl]-1-(3,4-difluorophenyl)-3-(propan-2-yl)-1H-pyrazolo[3,4-b]pyridine-6-carboxylic acid] the “% Activation” value (ΔF508-CFTR [1]) was 427.65%, the EC50 (ΔF508-CFTR [1]) was 499 nM and the “% Activation” value (ΔF508-CFTR [2]; [3]) was 257.8%. For the same compound, the EC50 (ΔF508-CFTR [2]; [4]) was 900 nM.
In the case of `O=C(O)c1cc(OCCCF)c2c(C3CCC3)nn(-c3ccccc3)c2n1` [compound 489, 3-cyclobutyl-4-(3-fluoropropoxy)-1-phenyl-1H-pyrazolo[3,4-b]pyridine-6-carboxylic acid], the “% Activation” value (ΔF508-CFTR [1]) is reported as 274.95%, the EC50 (ΔF508-CFTR [1]) is reported as 770 nM and the “% Activation” value (ΔF508-CFTR [2]; [5]) is reported as 106.4%. It also gave an EC50 (ΔF508-CFTR [2]; [5]) of 1860 nM.
For `O=C(O)c1cc(N2CCC(N3CCOCC3)CC2)c2c(C3CCC3)nn(-c3ccnc(O)c3)c2n1` [compound 885, 3-cyclobutyl-1-(2-hydroxypyridin-4-yl)-4-[4-(morpholin-4-yl)piperidin-1-yl]-1H-pyrazolo[3,4-b]pyridine-6-carboxylic acid], the “% Activation” value (ΔF508-CFTR [1]) was 255.5%, the EC50 (ΔF508-CFTR [1]) was 2450 nM and the “% Activation” value (ΔF508-CFTR [2]; [5]) was 66.2%. It also gave an EC50 (ΔF508-CFTR [2]; [5]) of 3340 nM.
